Test results from US11266149B2, “Herbicidal compositions” (University of Durham, priority 2016, dated 2022).
Entries after “also recorded” stand apart in the source; their conditions may differ.

Columns and labels:
[1] = test system: phenylalanine ammonia-lyase (PAL); settings: Buckwheat PAL inhibition; cited from earlier work
Arabidopsis plants = test: Spray treatment of Arabidopsis plants; assay type: in vivo, Arabidopsis thaliana
Protocol: (§1) Plant material—Arabidopsis thaliana ecotype Columbia-0 was used in all experiments that utilised Arabidopsis. For spray experiments, many seeds were sown in compost inside pots with a base area of […]. The plants were treated with herbicide formulations by spraying when they were 2-3 weeks old. To obtain leaf discs, individual plants were sown in single pots and grown for 4 weeks. Leaf discs of 1-cm diameter were cored from fully expanded leaves. Glyphosate-resistant and susceptible biotypes of Conyza sumatrensis [(Retz.) E. Walker] were obtained from an olive grove in Italy. For spraying experiments, many plants were sown in compost inside pots with a base area of 81 cm^2. Plants were spray-treated at 2 weeks from sowing. For leaf disc experiments, individual plants were sown in single pots and grown for 8 weeks before coring 1-cm diameter leaf discs from fully expanded leaves. All plants were grown in a 16 h photoperiod (˜200 μmol·m^−2·s^−1) at 22° C.
(§2) Chemicals—Shikimic acid and pure glyphosate were purchased from Sigma-Aldrich (Dorset, UK). These were used to make stock solutions in water that were adjusted to pH 5.5 and used for treatment of leaf discs. Shikimate-3-phosphate trisodium salt was purchased from Santa Cruz Biotechnology (Dallas, Tex.). Gallup® 360 (Barclay Chemicals Manufacturing Ltd, Dublin, Ireland), a formulation of 360 g/L glyphosate, was used for spray treatments after diluting down to the desired rate.
(§3) Treatments—Leaf discs of 1 cm-diameter were cored from plants and floated on 10 mL solutions inside Petri dishes. A minimum of 5 replicate discs per treatment arising from 5 independent plants were used. For dark incubation, the Petri dishes were wrapped in aluminium foil to exclude light. Leaf discs were harvested at time-points indicated in the Figure legends for photographing or for shikimic acid analysis. For spray treatments, glyphosate was formulated in 3 mL with enough Gallup® to achieve the desired rate on a surface area of 36 cm^2 or 81 cm^2 pots. A commercial herbicide enhancer oil Activator-G™ (Agrigem Ltd., Market Rasen, UK) was added as an adjuvant to spray at a final rate of 1 L/ha. Shikimate-3-phosphate was added to a final concentration of 500 μM in the 3 mL. Control plants were sprayed with water containing Activator-G only.
Next we turned our attention to the inexplicable retardation of shikimate conversion to shikimate-3-phosphate during exposure to glyphosate. We proposed the hypothesis that shikimate-3-phosphate is a critical component required for glyphosate to be phytotoxic and that glyphosate-susceptible plants attempt to block its formation in order to avoid death. We sprayed 2-week-old Arabidopsis plants with a formulation of glyphosate at different rates with or without shikimate-3-phosphate as an additive. […]

[2] = test system: Glyphosate-resistant (GR) and susceptible (GS) C. sumatrensis plants; test: Cut shoots placed in glyphosate solution with or without gluconic acid; assay type: in vivo, Conyza sumatrensis; settings: 100 μM glyphosate only, ten days (FIG. 8)
Protocol: Glyphosate-resistant (GR) and susceptible (GS) C. sumatrensis plants were germinated in soil and transferred to solutions of 100 μM glyphosate with or without 5 mM gluconic acid.
Because the pentose phosphate pathway gene GntK responds to glyphosate, we tested if intermediates in the pathway might also influence glyphosate toxicity (FIG. 8). Glyphosate resistant (GR) and glyphosate susceptible (GS) Conyza sumatrensis were germinated in soil and the shoots cut off at the base of the stem and placed in 2 mL of 100 μM glyphosate with or without gluconic acid at various concentrations. […] Cessation of growth and development of chlorosis are key hallmarks of glyphosate toxicity.

[3] = 25° C.; cited from earlier work
[4] = test system: Arabidopsis shikimate pathway genes; test: Quantitative real-time PCR of shikimate pathway genes in leaf discs; assay type: cell-based, Arabidopsis thaliana
Protocol: Gene expression analysis—RNA was extracted from leaf tissues using the Spectrum Plant Total RNA kit (Sigma-Aldrich) according to the manufacturer's instructions. Each sample was a pool of five 1 cm-diameter leaf discs arising from 5 independent plants. First strand cDNA synthesis was performed using 4 μg total RNA and oligod(T) using Promega (Southampton, UK) GoScript Reverse Transcription System. Quantitative real-time polymerase chain reaction was performed using SensiFast reagent kit (Bioline, London, UK) on a Rotorgene-Q (Qiagen, Crawley, UK). Each 20 μL reaction contained 10 μL SensiFast reagent, 5 μL cDNA template that had been diluted 1:8, and 8 pmoles each primer (forward and reverse primers). Cycling conditions used were as follows: denaturation at 95° C. for 2 mins followed by 40 cycles of 95° C. for 10 sec, annealing at 56° C. for 15 sec, and extension at 72° C. for 25 sec. Data analysis was performed using REST2009 (Qiagen, Crawley, UK) using ACTIN2 (At3g18780) and EIF4 (At3g13920) as reference control genes. Triplicate samples per treatment per time-point were analysed in order to calculate a mean and standard deviation.
Arabidopsis leaf discs were floated on 25 μM glyphosate solutions and incubated in light or total darkness. Samples were harvested at various intervals within 72 h of treatment for quantification of shikimic acid and analysis of gene expression using quantitative real-time PCR. […] All three DAPS genes were differentially regulated, only one of the five putative SK genes responded to glyphosate, both EPSPS genes were responsive, and the chorismate synthase (CS) genes responded as well (FIG. 6). Up-regulation of the shikimate pathway components triggered by blockading flux with glyphosate is a typical metabolic response.

[5] = test system: Conyza sumatrensis leaf discs; test: Shikimic acid accumulation in leaf discs; assay type: cell-based
Protocol: as §3
Shikimic acid analysis—Leaf discs floating on treatment solutions were blotted dry, added to microfuge tubes containing 125 μL of 0.25 N HCL before snap-freezing in liquid nitrogen and storing at −20° C. Samples were thawed at room temperature, vortexed for 5 min, and then incubated at 60° C. for 15 min. Aliquots of 25 μL were withdrawn and mixed with 100 μL of 0.25% (w/v) periodic acid/0.25% m-periodate in fresh microfuge tubes. After 30 min incubation at 37° C., 100 μL of 0.6 N NaOH/0.22 M Na2SO3 were added and the volume made up to 1 mL with distilled water. The shikimic acid in the samples was determined by spectrophotometric measurements at 382 nm against a reagent only blank and using a calibration curve of shikimic acid standards. The shikimic acid accumulating in response to glyphosate treatment was calculated as the difference between the reading from mock-treated control leaf discs and the glyphosate-treated discs. Values were expressed as μg/mL shikimic acid.

Galium mollugo cells = settings: glyphosate-treated Galium mollugo cells; cited from earlier work
[6] = test system: Conyza sumatrensis leaf discs; test: Leaf discs floated on glyphosate solutions, phytotoxicity / cell death; assay type: cell-based
Protocol: as §1, §2, §3
While studying programmed cell death, we noted that light is a crucial factor in the activation of plant cell death (Chivasa et al., 2009; Wang et al., 2012; Smith et al., 2014). We wondered if deprivation of light could also block glyphosate toxicity. To investigate this, we used a previously published in vitro assay (Teaster and Hoagland, 2013) in which leaf discs are floated over glyphosate solutions of desired concentration.

Arabidopsis leaf discs = test: Shikimic acid accumulation in Arabidopsis leaf discs; assay type: cell-based, Arabidopsis thaliana; settings: 25 μM glyphosate
Protocol: as §3, with “Control plants were sprayed with water containing Activator-G only.” left out
Shikimic acid analysis—Leaf discs floating on treatment solutions were blotted dry, added to microfuge tubes containing 125 μL of 0.25 N HCL before snap-freezing in liquid nitrogen and storing at −20° C. […] The shikimic acid in the samples was determined by spectrophotometric measurements at 382 nm against a reagent only blank and using a calibration curve of shikimic acid standards. The shikimic acid accumulating in response to glyphosate treatment was calculated as the difference between the reading from mock-treated control leaf discs and the glyphosate-treated discs. Values were expressed as μg/mL shikimic acid. […]

[7] = glyphosate, dark incubation (FIG. 6)
[8] = glyphosate-treated leaf discs (FIG. 6)

NO[C@@H](Cc1ccccc1)C(=O)O [L-α-aminooxy-β-phenylpropionic acid]
phenylalanine accumulation, light versus dark [1]: three-fold higher phenylalanine accumulation in light than in the dark

O=C([O-])C1=C[C@@H](OP(=O)([O-])[O-])[C@@H](O)[C@H](O)C1.[Na+].[Na+].[Na+] [Shikimate-3-phosphate, Shikimate-3-phosphate trisodium salt]
adverse effects on Arabidopsis (Arabidopsis plants; 500 μM shikimate-3-phosphate on its own, spray (FIG. 7C)): did not have any adverse effects

O=C(O)CNCP(=O)(O)O [glyphosate, N-[phosphonomethyl] glycine]
growth and chlorosis of GR plants ([2]; GR plants): have grown with expanded healthy and green leaves; also recorded: remained healthy and green
growth and chlorosis of GS plants ([2]; GS plants): stunted and chlorotic; also recorded: stopped growing and developed chlorosis, which eventually led to tissue death
solubility in water [3]: 1.16 % by weight
expression of At2g16790 in the dark [4, 7]: also stimulated in the dark
glyphosate-induced stimulation of other genes in the dark [4, 7]: dark incubation suppressed glyphosate-induced stimulation
expression of DAHPS, SK, EPSPS and CS genes ([4]; glyphosate, in light (FIG. 6)): significant changes in the expression
change in gene expression of At2g16790 [4, 8]: over 30 fold
change in gene expression of all other genes [4, 8]: below 6 fold
shikimic acid accumulation in leaf tissues ([5]; continuous dark incubation (FIG. 2B)): suppressed shikimic acid accumulation
shikimic acid level, susceptible versus resistant biotype ([5]; glyphosate 25-200 μM, one week (FIG. 3B)): significantly higher levels of shikimic acid than the resistant biotype
shikimic acid concentration in leaf tissues ([5]; light-dark cycle, one week after treatment (FIG. 2B)): massive rise
maximum concentration of shikimic acid accumulating ([5]; susceptible C. sumatrensis, within 3 days of exposure to glyphosate): 10 to 15 mM
symptoms after foliar application by spraying (Arabidopsis plants; 2-week-old plants, Gallup 360 formulation (FIG. 7A)): causes chlorosis and then cell death of apical meristems
effects on plant growth (Arabidopsis plants; glyphosate 18 g/ha, spray, 3 weeks (FIG. 7B)): no effects on plant growth
effects on Arabidopsis (Arabidopsis plants; glyphosate 36 g/ha, spray, 3 weeks (FIG. 7B)): very modest effects
estimated cellular shikimic acid (Galium mollugo cells): 20 to 23 mM
phytotoxic effects at much higher glyphosate concentration ([6]; 1 mM glyphosate, dark incubation, 3 days (FIG. 2C)): still requires light for phytotoxicity; also recorded: dark-incubation suppressed the phytotoxic effects
phytotoxic effects of glyphosate on leaf discs ([6]; incubated in complete darkness, 100 μM glyphosate, 14 days (FIG. 2A)): protected from the phytotoxic effects
viability of leaf discs ([6]; resistant biotype, 100 μM glyphosate on its own (FIG. 4A)): did not affect the viability
shikimate accumulation and cell death by biotype ([6]; susceptible and resistant biotypes (FIG. 3)): activates shikimate accumulation and cell death in the susceptible, but not resistant biotype
time until cell death (chlorosis, browning) easily visible ([6]; susceptible biotype, leaf discs floated on glyphosate): 10 to 14 days
shikimic acid accumulation (Arabidopsis leaf discs; dark incubation (FIG. 5)): suppressed shikimic acid accumulation
shikimic acid accumulation (Arabidopsis leaf discs; incubated in light, within 72 h (FIG. 5)): significant accumulation of shikimic acid

O=C(O)C1=C[C@@H](O)[C@@H](O)[C@H](O)C1 [shikimic acid, Shikimic acid]
breaking of glyphosate resistance at lower shikimic acid concentrations ([6]; with glyphosate, shikimic acid below 1-5 mM, 7 days (FIG. 4B)): unable to
shikimic acid concentrations able to break glyphosate resistance ([6]; with glyphosate, within 7 days of application (FIG. 4B)): 1 to 5 mM
phytotoxicity of shikimic acid on its own ([6]; without glyphosate, up to 15 mM): not phytotoxic; also recorded: did not cause any phytotoxicity
